Reference: patent publication EP4768484A1, “HETEROCYCLIC FUSED RING COMPOUND, AND COMPOSITION AND USE THEREOF” (Shenzhen TargetRx, Inc., priority 2023, dated 2025)

What was measured:
Format in all cases: cell-based
[1] = biological target: T1, Ba/F3 BCR-ABL1 Y253H/E255K (Homo sapiens, UniProt P00519+P11274, E255K/Y253H); assay: Cell growth inhibitory activity assay (CellTiter-Glo), Ba/F3 BCR-ABL1 Y253H/E255K cells; details: 72 h, CTG cell viability
T1 construct: BCR (N-terminal fusion partner of the oncoprotein); expressed in transfected cells; host or cells: Ba/F3 (lentiviral transduction, monoclonal line)
Method: (§1) In this assay, the Celltiter-Glo (CTG) kit provided by Promega was used, and it is a homogeneous cell viability assay method. The cell viability of cultured cells was measured by quantifying ATP. K562 cells were purchased from Nanjing Kebai, product number CBP60529; Ba/F3 parental cells were purchased from RIKEN BRC, product number RCB0805; other cells containing BCR-ABL1 WT, BCR-ABL1 T315I, BCR-ABL1 T315M, BCR-ABL1 Y253H/E255K, BCR-ABL1 E255V/T3151, BCR-ABL1 A424T, BCR-ABL1 A337V, BCR-ABL1 P465S, BCR-ABL1 V468F, and BCR-ABL1 I502L were all monoclonal engineered cell lines obtained by transducting Ba/F3 parental cells with the lentivirus plasmids containing WT or corresponding mutated BCR-ABL1.
(§2) The steps of cell viability assay are as follows: • a) Cells in logarithmic growth phase were collected. Cell suspension was prepared and the cells were counted. Concentration of the cells was calculated. • b) The cell suspension was diluted to the required concentration and then added to the middle wells of a 96-well plate, and PBS was added to the edge wells. The wells with no cells and only culture medium were used as blank controls. • c) In addition to the cell plate used for compound analysis, another 96-well plate was prepared as a T0 plate, and 3-6 blank wells and 3-6 cell wells were added. The next day, CTG was used to test the cell viability as the T0 viability value of the cells. • d) The cell plate was incubated at 37 °C in a 5% CO2 incubator overnight. • e) The next day, each concentration of a compound subjected to a gradient dilution was added, and the cell plate was incubated at 37 °C in a 5% CO2 incubator for 72 h. The wells with no compound and only 0.5% DMSO were used as positive controls for cell growth. • f) CTG reagent (CellTiter-Glo kit) was added according to the manufacturer's instructions to test the cell viability value. • g) The plate was read using Biotek cytation3.0 microplate reader and the data were exported. • h) IC50 was calculated using GraphPad Prism 7.0 software.
(§3) The IC50 (half-maximal inhibitory concentration) of the compound was obtained using the following nonlinear fitting formula: Y = Bottom + (Top−Bottom)/(1+10^(∧)((LogIC50−X)*HillSlope)) [formula] • X: Log value of the compound concentration • Y: Inhibition rate (% inhibition) • Top: Maximum response • Bottom: Baseline response • HillSlope: Slope of the curve
(§4) The formula for calculating cell inhibition rate (inhibition rate %) was: [formula]

Ba/F3 BCR-ABL1 A337V = biological target: T2, Ba/F3 BCR-ABL1 A337V (Homo sapiens, UniProt P00519+P11274, A337V); assay: Cell growth inhibitory activity assay (CellTiter-Glo), Ba/F3 BCR-ABL1 A337V cells; details: 72 h, CTG cell viability
T2 construct: BCR (N-terminal fusion partner of the oncoprotein); expressed in transfected cells; host or cells: Ba/F3 (lentiviral transduction, monoclonal line)
Method: as §1, §2, §3, §4

Ba/F3 BCR-ABL1 WT = biological target: T3, Ba/F3 BCR-ABL1 WT (Homo sapiens, UniProt P00519+P11274); assay: Cell growth inhibitory activity assay (CellTiter-Glo), Ba/F3 BCR-ABL1 WT cells; details: 72 h, CTG cell viability
T3 construct: BCR (N-terminal fusion partner of the oncoprotein); expressed in transfected cells; host or cells: Ba/F3 (lentiviral transduction, monoclonal line)
Summary of the method: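 Ba/F3 parental cells or Ba/F3 lines lentivirally transduced with WT or mutant BCR-ABL1, seeded overnight then exposed to serially diluted compound 72 h at 37 °C, 5% CO2. Viability by CellTiter-Glo ATP luminescence with a T0 plate; 0.5% DMSO controls; IC50 from four-parameter nonlinear fit.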

Ba/F3 BCR-ABL1 A424T = biological target: T4, Ba/F3 BCR-ABL1 A424T (Homo sapiens, UniProt P00519+P11274, A424T); assay: Cell growth inhibitory activity assay (CellTiter-Glo), Ba/F3 BCR-ABL1 A424T cells; details: 72 h, CTG cell viability
T4 construct: BCR (N-terminal fusion partner of the oncoprotein); expressed in transfected cells; host or cells: Ba/F3 (lentiviral transduction, monoclonal line)
Method: as §1, §2, §3, §4

Ba/F3 BCR-ABL1 T315I = biological target: T5, Ba/F3 BCR-ABL1 T315I (Homo sapiens, UniProt P00519+P11274, T315I); assay: Cell growth inhibitory activity assay (CellTiter-Glo), Ba/F3 BCR-ABL1 T315I cells; details: 72 h, CTG cell viability
T5 construct: BCR (N-terminal fusion partner of the oncoprotein); expressed in transfected cells; host or cells: Ba/F3 (lentiviral transduction, monoclonal line)
Summary of the method: (§5)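 Luminescent ATP read-out (CellTiter-Glo) after 72 h compound exposure at 37 °C, 5% CO2. Cells: monoclonal Ba/F3 lentivirally engineered with mutant BCR-ABL1, or parental Ba/F3. A T0 plate read the day after seeding; 0.5% DMSO wells as uninhibited growth control. IC50 via variable-slope logistic fit of % inhibition.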

Ba/F3 BCR-ABL1 T315M = biological target: T6, Ba/F3 BCR-ABL1 T315M (Homo sapiens, UniProt P00519+P11274, T315M); assay: Cell growth inhibitory activity assay (CellTiter-Glo), Ba/F3 BCR-ABL1 T315M cells; details: 72 h, CTG cell viability
T6 construct: BCR (N-terminal fusion partner of the oncoprotein); expressed in transfected cells; host or cells: Ba/F3 (lentiviral transduction, monoclonal line)
Summary of the method: as §5

Ba/F3 parental cells = assay: Cell growth inhibitory activity assay (CellTiter-Glo), Ba/F3 parental cells; details: Mus musculus, BaF3, 72 h, CTG cell viability, read-out: IC50 Ba/F3 BCR-ABL1 Parental
Summary of the method: as §5

Ba/F3 BCR-ABL1 I502L = biological target: T7, Ba/F3 BCR-ABL1 I502L (Homo sapiens, UniProt P00519+P11274, I502L); assay: Cell growth inhibitory activity assay (CellTiter-Glo), Ba/F3 BCR-ABL1 I502L cells; details: 72 h, CTG cell viability
T7 construct: BCR (N-terminal fusion partner of the oncoprotein); expressed in transfected cells; host or cells: Ba/F3 (lentiviral transduction, monoclonal line)
Method: as §1, §2, §3, §4

[2] = biological target: T8, Ba/F3 BCR-ABL1 E255V/T315I (Homo sapiens, UniProt P00519+P11274, E255V/T315I); assay: Cell growth inhibitory activity assay (CellTiter-Glo), Ba/F3 BCR-ABL1 E255V/T315I cells; details: 72 h, CTG cell viability
T8 construct: BCR (N-terminal fusion partner of the oncoprotein); expressed in transfected cells; host or cells: Ba/F3 (lentiviral transduction, monoclonal line)
Method: as §1, §2, §3, §4

K562 cells = assay: Cell growth inhibitory activity assay (CellTiter-Glo), K562 cells; details: Homo sapiens, 72 h, CTG cell viability
Summary of the method: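 K562 cells in logarithmic growth were counted, diluted and plated in 96-well plates, with medium-only blanks and a separate T0 plate read by CTG the following day. After overnight incubation, graded compound concentrations were added for 72 h, with 0.5% DMSO wells as growth controls. Luminescence was read on a Biotek cytation3.0, and IC50 came from nonlinear fitting in GraphPad Prism 7.0.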

Ba/F3 BCR-ABL1 P465S = biological target: T9, Ba/F3 BCR-ABL1 P465S (Homo sapiens, UniProt P00519+P11274, P465S); assay: Cell growth inhibitory activity assay (CellTiter-Glo), Ba/F3 BCR-ABL1 P465S cells; details: 72 h, CTG cell viability
T9 construct: BCR (N-terminal fusion partner of the oncoprotein); expressed in transfected cells; host or cells: Ba/F3 (lentiviral transduction, monoclonal line)
Method: as §1, §2, §3, §4

Ba/F3 BCR-ABL1 V468F = biological target: T10, Ba/F3 BCR-ABL1 V468F (Homo sapiens, UniProt P00519+P11274, V468F); assay: Cell growth inhibitory activity assay (CellTiter-Glo), Ba/F3 BCR-ABL1 V468F cells; details: 72 h, CTG cell viability
T10 construct: BCR (N-terminal fusion partner of the oncoprotein); expressed in transfected cells; host or cells: Ba/F3 (lentiviral transduction, monoclonal line)
Method: as §1, §2, §3, §4

Row | Structure (SMILES) | IC50 [1] [nM] | IC50 (Ba/F3 BCR-ABL1 A337V) [nM] | IC50 (Ba/F3 BCR-ABL1 WT) [nM] | IC50 (Ba/F3 BCR-ABL1 A424T) [nM] | IC50 (Ba/F3 BCR-ABL1 T315I) [nM] | IC50 (Ba/F3 BCR-ABL1 T315M) [nM] | IC50 (Ba/F3 parental cells) [nM] | IC50 (Ba/F3 BCR-ABL1 I502L) [nM] | IC50 [2] [nM] | IC50 (K562 cells) [nM] | IC50 (Ba/F3 BCR-ABL1 P465S) [nM] | IC50 (Ba/F3 BCR-ABL1 V468F) [nM]
1 | CC(C)n1cc2c(n1)-c1cc(-c3cc(C(=O)Nc4ccc(OC(F)(F)Cl)cc4)cc4nc5n(c34)[C@H](C)COC5)cnc1C2 [T-48, (R)-N-(4-(chlorodifluoromethoxy)phenyl)-6-(2-isopropyl-2,4-dihydropyrazolo[3',4':3,4]cyclopenta[1,2-b]pyridin-7-yl)-4-methyl-3,4-dihydro-1H-benzo[4,5]imidazo[2,1-c][1,4]oxazine-8-carboxamide] | ≤ 5 | 5 to 50 | ≤ 5 | 5 to 50 | ≤ 5 | > 1000 | > 1000 | 5 to 50 | ≤ 5 | ≤ 5 | 50 to 1000 | 5 to 50
2 | C[C@@H]1COCc2nc3cc(C(=O)Nc4ccc(OC(F)(F)Cl)cc4)cc(-c4cnc5c(c4)-c4nn(CC(F)(F)F)cc4C5)c3n21 [T-49, (R)-N-(4-(chlorodifluoromethoxy)phenyl)-4-methyl-6-(2-(2,2,2-trifluoroethyl)-2,4-dihydropyrazolo[3',4':3,4]cyclopenta[1,2-b]pyridin-7-yl)-3,4-dihydro-1H-benzo[4,5]imidazo[2,1-c][1,4]oxazine-8-carboxamide] | ≤ 5 | 5 to 50 | ≤ 5 | ≤ 5 | ≤ 5 | 50 to 1000 | > 1000 | 5 to 50 | ≤ 5 | ≤ 5 | 5 to 50 | 5 to 50
3 | C[C@@H]1COCc2nc3cc(C(=O)Nc4ccc(OC(F)(F)Cl)cc4)cc(-c4cnc5c(c4)-c4nn(C6COC6)cc4C5)c3n21 [T-52, (R)-N-(4-(chlorodifluoromethoxy)phenyl)-4-methyl-6-(2-(oxetan-3-yl)-2,4-dihydropyrazolo[3',4':3,4]cyclopenta[1,2-b]pyridin-7-yl)-3,4-dihydro-1H-benzo[4,5]imidazo[2,1-c] [1,4]oxazine-8-carboxamide] | 5 to 50 | 50 to 1000 | ≤ 5 | 5 to 50 | ≤ 5 | > 1000 | > 1000 | 5 to 50 | ≤ 5 | ≤ 5 | 50 to 1000 | 5 to 50
4 | [2H]C([2H])([2H])C([2H])(n1cc2c(n1)-c1cc(-c3cc(C(=O)Nc4ccc(OC(F)(F)Cl)cc4)cc4nc5n(c34)[C@H](C)COC5)cnc1C2)C([2H])([2H])[2H] [T-54] | ≤ 5 | 5 to 50 | ≤ 5 | 5 to 50 | ≤ 5 | > 1000 | > 1000 | 5 to 50 | ≤ 5 | ≤ 5 | 5 to 50 | 5 to 50
5 | C[C@@H]1COCc2nc3cc(C(=O)Nc4ccc(OC(F)(F)Cl)cc4)cc(-c4cnc5c(c4)-c4nn(C6CC6)cc4C5)c3n21 [T-57, (R)-N-(4-(chlorodifluoromethoxy)phenyl)-6-(2-cyclopropyl-2,4-dihydropyrazolo[3',4':3,4]cyclopenta[1,2-b]pyridin-7-yl)-4-methyl-3,4-dihydro-1H-benzo[4,5]imidazo[2,1-c][1,4]oxazine-8-carboxamide] | 5 to 50 | 5 to 50 | ≤ 5 | 5 to 50 | ≤ 5 | > 1000 | > 1000 | 5 to 50 | ≤ 5 | ≤ 5 | 50 to 1000 | 5 to 50
6 | C[C@@H]1COCc2nc3cc(C(=O)Nc4ccc(OC(F)(F)Cl)cc4)cc(-c4cnc5c(c4)-c4nn(-c6ncccn6)cc4C5)c3n21 [T-65] | ≤ 5 | ≤ 5 | ≤ 5 | ≤ 5 | ≤ 5 | ≤ 5 | > 1000 | ≤ 5 | ≤ 5 | ≤ 5 | 5 to 50 | 5 to 50
7 | C[C@@H]1COCc2nc3cc(C(=O)Nc4ccc(OC(F)(F)Cl)cc4)cc(-c4cnc5c(c4)-c4nn(-c6cncnc6)cc4C5)c3n21 [T-66, (R)-N-(4-(chlorodifluoromethoxy)phenyl)-4-methyl-6-(2-(pyrimidin-5-yl)-2,4-dihydropyrazolo[3',4':3,4]cyclopenta[1,2-b]pyridin-7-yl)-3,4-dihydro-1H-benzo[4,5]imidazo[2,1-c][1,4]oxazine-8-carboxamide] | 50 to 1000 | 50 to 1000 | ≤ 5 | 5 to 50 | 5 to 50 | > 1000 | > 1000 | 50 to 1000 | 50 to 1000 | ≤ 5 | 50 to 1000 | 50 to 1000
8 | C[C@@H]1COCc2nc3cc(C(=O)Nc4ccc(OC(F)(F)Cl)cc4)cc(-c4cnc5c(c4)-c4c(cnn4-c4nccc(C#N)n4)C5)c3n21 [T-69-A, (R)-N-(4-(chlorodifluoromethoxy)phenyl)-6-(1-(4-cyanopyrimidin-2-yl)-1,4-dihydropyrazolo[3',4':3,4]cyclopenta[1,2-b]pyridin-7-yl)-4-methyl-3,4-dihydro-1H-benzo[4,5]imidazo[2,1-c][1,4]oxazine-8-carboxamide] | 5 to 50 | 50 to 1000 | ≤ 5 | 50 to 1000 | 5 to 50 | 50 to 1000 | > 1000 | 50 to 1000 | 5 to 50 | ≤ 5 | 50 to 1000 | > 1000
9 | C[C@@H]1COCc2nc3cc(C(=O)Nc4ccc(OC(F)(F)Cl)cc4)cc(-c4cnc5c(c4)-c4nn(-c6nccc(C#N)n6)cc4C5)c3n21 [T-69-B, (R)-N-(4-(chlorodifluoromethoxy)phenyl)-6-(2-(4-cyanopyrimidin-2-yl)-2,4-dihydropyrazolo[3',4':3,4]cyclopenta[1,2-b]pyridin-7-yl)-4-methyl-3,4-dihydro-1H-benzo[4,5]imidazo[2,1-c][1,4]oxazine-8-carboxamide] | 5 to 50 | 50 to 1000 | ≤ 5 | 5 to 50 | ≤ 5 | ≤ 5 | > 1000 | ≤ 5 | ≤ 5 | ≤ 5 | 50 to 1000 | 50 to 1000
